Data reported in US20220388992A1, “JAK INHIBITOR COMPOUND AND USE THEREOF” (priority 2019, published 2022).

How the values were obtained:
Type in all cases: biochemical
[1] = biological target: JAK1 (Homo sapiens, UniProt P23458); assay: JAK1 kinase inhibition, ADP-Glo luminescence assay; set-up: purchased Carna 08-144; conditions: substrate IRS1
Excerpt: (§1) A drug screening system based on kinases JAK1, JAK2, JAK3, and TYK2 was used to detect the inhibitory ability of small molecule compounds on kinase activity. A kinase undergoes an enzymatic reaction with its substrates IRS 1, IGF1Rtide, and Poly (4:1 Glu, Tyr), consuming ATP to produce ADP, wherein the ADP-Glo reagent and luminescence method were used to detect the amount of the product to reflect the activity of the kinase. 2.1 Experimental Materials and Instruments
(§2) a) Dilute a compound solution to be tested by 5 times with 100% DMSO. […] The final concentration of DMSO is 0.5%. d) Transfer 4 μL of ADP-Glo to the 384-well reaction plate, centrifuge it at 1000 rpm/min for 1 min, and incubate it at 25° C. for 40 min. e) Transfer 8 μL of Detection solution to the 384-well reaction plate, centrifuge it at 1000 rpm/min for 1 min, and incubate it at 25° C. for 40 min. f) Use Biotek multi-function plate reader to read the RLU (Relative luminescence unit) signal. The signal intensity is used to characterize the degree of kinase activity.
(§3) IC50 (half inhibitory concentration) of the compound can be obtained using the following nonlinear fitting formula:
(§4) Y=Bottom+(Top−Bottom)/(1+10^((Log IC50−X)*HillSlope))

[2] = biological target: JAK2 (Homo sapiens, UniProt O60674); assay: JAK2 kinase inhibition, ADP-Glo luminescence assay; set-up: purchased Carna 08-045; conditions: substrate IGF1Rtide
Excerpt: as §1, §2, §3, §4

[3] = biological target: T1, TYK2 (Homo sapiens, UniProt P29597); assay: TYK2 kinase inhibition, ADP-Glo luminescence assay; conditions: substrate IRS1
T1 sequence (P29597 871-1187 limits assumed): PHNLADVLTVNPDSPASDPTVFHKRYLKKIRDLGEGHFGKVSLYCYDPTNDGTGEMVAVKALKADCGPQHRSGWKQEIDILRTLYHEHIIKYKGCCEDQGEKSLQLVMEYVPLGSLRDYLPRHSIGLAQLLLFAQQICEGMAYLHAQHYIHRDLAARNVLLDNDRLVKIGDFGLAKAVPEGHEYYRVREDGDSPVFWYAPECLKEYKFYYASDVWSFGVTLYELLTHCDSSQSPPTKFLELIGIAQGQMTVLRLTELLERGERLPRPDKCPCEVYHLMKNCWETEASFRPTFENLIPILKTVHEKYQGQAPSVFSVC
Excerpt: as §1, §2, §3, §4

[4] = biological target: T2, JAK3 (Homo sapiens, UniProt P52333); assay: JAK3 kinase inhibition, ADP-Glo luminescence assay; conditions: substrate Poly (4:1 Glu, Tyr)
T2 construct: purchased Carna 08-046
Excerpt: as §1, §2, §3, §4

Sequence of JAK1 (P23458 850-1154 limits assumed): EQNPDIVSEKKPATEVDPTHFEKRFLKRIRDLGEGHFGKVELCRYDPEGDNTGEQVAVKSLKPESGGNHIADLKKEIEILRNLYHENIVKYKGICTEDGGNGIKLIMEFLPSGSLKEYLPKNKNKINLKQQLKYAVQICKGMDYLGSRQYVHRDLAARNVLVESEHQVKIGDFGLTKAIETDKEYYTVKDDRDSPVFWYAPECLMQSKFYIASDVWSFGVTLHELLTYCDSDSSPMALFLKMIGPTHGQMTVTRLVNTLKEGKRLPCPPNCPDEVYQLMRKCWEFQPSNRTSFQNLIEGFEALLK
T2 sequence (P52333 795-1124 limits assumed): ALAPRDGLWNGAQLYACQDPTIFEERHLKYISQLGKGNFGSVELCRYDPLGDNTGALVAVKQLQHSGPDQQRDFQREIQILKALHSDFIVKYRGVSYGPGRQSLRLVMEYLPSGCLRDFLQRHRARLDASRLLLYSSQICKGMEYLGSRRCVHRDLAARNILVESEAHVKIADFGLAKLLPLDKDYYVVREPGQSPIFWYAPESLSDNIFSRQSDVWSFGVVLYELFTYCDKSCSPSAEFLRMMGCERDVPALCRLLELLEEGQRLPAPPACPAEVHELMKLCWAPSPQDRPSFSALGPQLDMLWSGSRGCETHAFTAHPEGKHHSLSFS
Sequence of JAK2 (O60674 826-1132 limits assumed): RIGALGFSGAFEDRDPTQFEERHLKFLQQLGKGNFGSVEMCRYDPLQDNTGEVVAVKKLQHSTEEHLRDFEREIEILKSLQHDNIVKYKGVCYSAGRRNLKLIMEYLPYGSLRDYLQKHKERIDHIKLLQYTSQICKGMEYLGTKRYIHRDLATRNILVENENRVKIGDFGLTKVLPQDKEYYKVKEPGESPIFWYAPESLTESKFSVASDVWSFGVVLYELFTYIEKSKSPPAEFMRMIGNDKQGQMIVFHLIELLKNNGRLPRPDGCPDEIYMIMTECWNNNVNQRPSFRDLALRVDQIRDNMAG

| IC50 [1] [nM] | IC50 [2] [nM] | IC50 [3] [nM] | IC50 [4] [nM] | Structure (SMILES) |
| --- | --- | --- | --- | --- |
| 1.3 | 1.5 | 19.8 | 1.3 | CCc1cc(O)c(F)cc1-c1ccc2c(-c3nc(CN4CCC(O)CC4)c[nH]3)n[nH]c2c1 [Ex-9, 1-((2-(6-(2-ethyl-5-fluoro-4-hydroxyphenyl)-1H-indazol-3-yl)-1H-imidazol-4-yl)methyl)piperidin-4-ol] |
| 1.2 | 5.2 | 27 | 4.5 | CCc1cc(O)c(F)cc1-c1ccc2c(-c3nc(CN(C)C(=O)C4CC4)c[nH]3)n[nH]c2c1 [Ex-10, N-((2-(6-(2-ethyl-5-fluoro-4-hydroxyphenyl)-1H-indazol-3-yl)-1H-imidazol-4-yl)methyl)-N-methylcyclopropanecarboxamide] |
| 0.31 | 0.85 | 18.4 | 2.5 | CCc1cc(O)c(F)cc1-c1ccc2c(-c3nc(CN4CCC(C#N)CC4)c[nH]3)n[nH]c2c1 [Ex-11, 1-((2-(6-(2-ethyl-5-fluoro-4-hydroxyphenyl)-1H-indazol-3-yl)-1H-imidazol-4-yl)methyl)piperidine-4-nitrile] |
| 0.1 | 0.74 | 6.1 | 0.67 | CCc1cc(O)c(F)cc1-c1ccc2c(-c3nc(CN4CCC(C#N)C4)c[nH]3)n[nH]c2c1 (centres unmarked) [Ex-12, 1-((2-(6-(2-ethyl-5-fluoro-4-hydroxyphenyl)-1H-indazol-3-yl)-1H-imidazol-4-yl)methyl)pyrrolidine-3-carbonitrile] |
| 0.48 | 0.84 | 11.3 | 1.7 | CCc1cc(O)c(F)cc1-c1ccc2c(-c3nc(CN4CCOCC4)c[nH]3)n[nH]c2c1 [Ex-13, 5-ethyl-2-fluoro-4-(3-(4-(morpholinomethyl)-1H-imidazol-2-yl)-1H-indazol-6-yl)phenol] |
| 0.47 | 1.2 | 9.6 | 1.6 | CCc1cc(O)c(F)cc1-c1ccc2c(-c3nc(CNc4cccnc4)c[nH]3)n[nH]c2c1 [Ex-14, 5-ethyl-2-fluoro-4-(3-(4-((pyridin-3-ylamino)methyl)-1H-imidazol-2-yl)-1H-indazol-6-yl)phenol] |
| 0.29 | 0.78 | 4.9 | 0.76 | CCc1cc(O)c(F)cc1-c1ccc2c(-c3nc(CNc4cnn(C)c4)c[nH]3)n[nH]c2c1 [Ex-15, 5-ethyl-2-fluoro-4-(3-(4-(((1-methyl-1H-pyrazol-4-yl)amino)methyl)-1H-imidazol-2-yl)-1H-indazol-6-yl)phenol] |
| 0.16 | 0.5 | 0.97 | 0.43 | CCc1cc(O)c(F)cc1-c1ccc2c(-c3nc(CNC(=O)N(C)CCO)c[nH]3)n[nH]c2c1 [Ex-16, 3-((2-(6-(2-ethyl-5-fluoro-4-hydroxyphenyl)-1H-indazol-3-yl)-1H-imidazol-4-yl)methyl)-1-(2-hydroxyethyl)-1-methylurea] |
| 0.36 | 1.2 | 6.5 | 2.9 | CCc1cc(O)c(F)cc1-c1ccc2c(-c3nc(CNCC4CC4)c[nH]3)n[nH]c2c1 [Ex-17, 4-(3-(4-(((cyclopropylmethyl)amino)methyl)-1H-imidazol-2-yl)-1H-indazol-6-yl)-5-ethyl-2-fluoro phenol] |
| 0.15 | 1.4 | 3.7 | 1.1 | CCc1cc(O)c(F)cc1-c1ccc2c(-c3nc(CNS(=O)(=O)C4CC4)c[nH]3)n[nH]c2c1 [Ex-18, N-((2-(6-(2-ethyl-5-fluoro-4-hydroxyphenyl)-1H-indazol-3-yl)-1H-imidazol-4-yl)methyl)cyclopropanesulfonamide] |
| 0.33 | 3.3 | 6.4 | 2.3 | CCc1cc(O)c(F)cc1-c1ccc2c(-c3nc(CNS(=O)(=O)CC)c[nH]3)n[nH]c2c1 [Ex-19, N-((2-(6-(2-ethyl-5-fluoro-4-hydroxyphenyl)-1H-indazol-3-yl)-1H-imidazol-4-yl)methyl)ethanesulfonamide] |
| 0.1 | 0.53 | 1 | 0.43 | CCc1cc(O)c(F)cc1-c1ccc2c(-c3nc(CNC(=O)N4CCC(O)CC4)c[nH]3)n[nH]c2c1 [Ex-20, N-((2-(6-(2-ethyl-5-fluoro-4-hydroxyphenyl)-1H-indazol-3-yl)-1H-imidazol-4-yl)methyl)-4-hydroxypiperidine-1-carboxamide] |
| 0.21 | 0.72 | 6.9 | 0.64 | CCc1cc(O)c(F)cc1-c1ccc2c(-c3nc(CN(C)C(=O)N4CC[C@@H](O)C4)c[nH]3)n[nH]c2c1 [Ex-21, (R)—N-((2-(6-(2-ethyl-5-fluoro-4-hydroxyphenyl)-1H-indazol-3-yl)-1H-imidazol-4-yl)methyl)-3-hydroxy-N-methylpyrrolidine-1-carboxamide] |
| 0.14 | 0.68 | 1.1 | 0.48 | CCc1cc(O)c(F)cc1-c1ccc2c(-c3nc(CNC(=O)N4CC[C@@H](O)C4)c[nH]3)n[nH]c2c1 [Ex-22, (R)—N-((2-(6-(2-ethyl-5-fluoro-4-hydroxyphenyl)-1H-indazol-3-yl)-1H-imidazol-4-yl)methyl)-3-hydroxypyrrolidine-1-carboxamide] |
| 0.15 | 0.68 | 0.96 | 0.49 | CCc1cc(O)c(F)cc1-c1ccc2c(-c3nc(CNC(=O)N4CC[C@H](O)C4)c[nH]3)n[nH]c2c1 [Ex-23, (S)—N-((2-(6-(2-ethyl-5-fluoro-4-hydroxyphenyl)-1H-indazol-3-yl)-1H-imidazol-4-yl)methyl)-3-hydroxypyrrolidine-1-carboxamide] |
| 0.37 | 1.3 | 23 | 3.3 | CCc1cc(O)c(F)cc1-c1ccc2c(-c3nc(CN(C)CCO)c[nH]3)n[nH]c2c1 [Ex-24, 5-ethyl-2-fluoro-4-(3-(4-(((2-hydroxyethyl)(methyl)amino)methyl)-1H-imidazol-2-yl)-1H-indazol-6-yl)phenol] |
| 0.4 | 2.8 | 7 | 2.5 | CCc1cc(O)c(F)cc1-c1ccc2c(-c3nc(CNS(=O)(=O)C(C)C)c[nH]3)n[nH]c2c1 [Ex-25, N-((2-(6-(2-ethyl-5-fluoro-4-hydroxyphenyl)-1H-indazol-3-yl)-1H-imidazol-4-yl)methyl)propane-2-sulfonamide] |
| 0.43 | 0.43 | 1.7 | 0.57 | CCc1cc(O)c(F)cc1-c1ccc2c(-c3nc(CNC(=O)OC)c[nH]3)n[nH]c2c1 [Ex-26, methyl ((2-(6-(2-ethyl-5-fluoro-4-hydroxyphenyl)-1H-indazol-3-yl)-1H-imidazol-4-yl)methyl)carbamate] |
| 0.92 | 6.3 | 9.2 | 4.4 | CCc1cc(O)c(F)cc1-c1ccc2c(-c3nc(CNC(=O)OCCC#N)c[nH]3)n[nH]c2c1 [Ex-27, 2-cyanoethyl ((2-(6-(2-ethyl-5-fluoro-4-hydroxyphenyl)-1H-indazol-3-yl)-1H-imidazol-4-yl)methyl) carbamate] |
| 0.14 | 0.86 | 1.6 | 1 | CCc1cc(O)c(F)cc1-c1ccc2c(-c3nc(CNC(=O)C4CCC4)c[nH]3)n[nH]c2c1 [Ex-28, N-((2-(6-(2-ethyl-5-fluoro-4-hydroxyphenyl)-1H-indazol-3-yl)-1H-imidazol-4-yl)methyl)cyclobutanecarboxamide] |
